From publication PMC12677607, “Identification of a Pair of Linear or Cyclic Naturally Inspired Bifunctional Lipopeptide Antibiotics That Overcome Antimicrobial Resistance” (Advanced Science, 2025)
Converted amounts (≈) assume the structure as drawn. Bridge positions count the residues as written; N and C are the ends. Square brackets hold non-standard residues; d marks the D form. Peptide text beside a SMILES is read from it. * marks the point of attachment. Myristoyl = CCCCCCCCCCCCCC(=O)*; Orn = NCCC[C@H](N)C(=O)O; Dab = NCC[C@H](N)C(=O)O; Dap = NC[C@H](N)C(=O)O

What was measured:
[1] = system: S. aureus USA300 MprFT345A; assay: MIC against daptomycin-resistant mutant; format: cell-based
Procedure: (§1) All MIC assays were performed two independent times (n = 2) in 96‐well plates using a broth micro‐dilution method. The lowest concentration of that inhibited visible microbial growth was recorded as the MIC value.
(§2) For most of bacterial strains, overnight cultures were diluted 5000‐fold in LB broth. For E. faecium and S. aureus, overnight cultures were diluted 1000‐ and 10000‐fold in LB broth, respectively. 100 µL of diluted cells was mixed with 100 µL of LB broth containing each peptide ranging from 64 to 0.125 µg mL^−1 at 2‐fold serial dilutions.
(§3) Overnight cultures S. aureus USA300 were diluted 10000‐fold in LB broth, and 100 µL of dilute cell suspension was added to 96‐well plates containing 100 µL serially diluted aquicidine C4, telomycin, and daptomycin (with 15 mM CaCl2). Overnight cultures K. pneumoniae CRKP5452 were diluted 5000‐fold in LB broth, and 100 µL of dilute cell suspension was added to 96‐well plates containing 100 µL serially diluted aquicidine L and colistin. After an incubation of 24 h at 37 °C, the MIC value was determined. […] The MIC value was recorded as described above, and the process was repeated daily for 21 days. Experiments were performed two independent times (n = 2).
(§4) Single‐nucleotide polymorphisms (SNPs) for telomycin‐, daptomycin‐ or colistin‐resistant mutants were identified using SNIPPY by mapping DNBSEQ‐seq reads to the reference genome of S. aureus USA300 or K. pneumoniae CRKP5452.

[2] = system: methicillin-resistant S. aureus USA300; assay: Mouse peritonitis-sepsis model; format: in vivo; details: S. aureus USA300, ICR mice, single s.c. dose 1 h after infection, doses 50, 100, 150 mg kg^−1, n = 5
Procedure: (§5) Six‐week‐old female ICR mice were used in all experiments and housed in a temperature‐controlled room (25 °C) with 12‐h light/dark cycle and 30% relative humidity. Mice were observed twice daily for mortality and morbidity. Abnormal clinical signs were recorded if observed and totally monitored for five days. The detailed methods for the mouse peritonitis‐sepsis model were as follows.
Methicillin‐resistant S. aureus USA300 was cultured in LB broth at 37 °C for 16 h and diluted with 7% type II porcine stomach mucin with 0.2 mM FeNH4‐citrate. S. aureus cell cultures were diluted to provide a challenge inoculum of 2.5 × 10^8 CFU in 0.5 mL and then administered into each mouse via intraperitoneal injection. 25 mice were randomly grouped into five per cohort (n = 5) and each cohort was given a single dose of either vehicle (20% solutol), aquicidine C4 at 50, 100, or 150 mg kg^−1, and vancomycin at 50 mg kg^−1 1 hr after infection via subcutaneous injection.

[3] = system: vancomycin-resistant E. faecium 35682; assay: Mouse peritonitis-sepsis model; format: in vivo; details: E. faecium 35682, ICR mice, single s.c. dose 1 h after infection, doses 50, 100, 150 mg kg^−1, n = 5
Procedure: as §5
Vancomycin‐resistant E. faecium 35682 was cultured in BHI broth at 37 °C fro 16 h and diluted with 5% type II porcine stomach mucin and 0.9% NaCl. E. faecium cell cultures were diluted to provide a challenge inoculum of 4.0 × 10^9 CFU in 0.5 mL and then administered into each mouse via intraperitoneal injection. 25 mice were randomly grouped into five per cohort (n = 5) and each cohort was given a single dose of either vehicle (20% solutol), aquicidine C4 at 50, 100 or 150 mg/kg and daptomycin at 100 mg kg^−1 with 15 mM CaCl2 1 h after infection via subcutaneous injection.

E. coli DH5α = assay: Membrane component feeding assay; format: cell-based; details: feeding 2 to 128 µg mL^−1, E. coli DH5α, Figure 5e
Procedure: The effects of bacterial membrane components on aquicidine L's or aquicidine C4's anti‐bacterial activities were evaluated using E. coli DH5α or S. aureus USA300. […] All experiments were done in triplicate (n = 3) and repeated two independent times (n = 2).

[4] = system: Acinetobacter baumannii P53; assay: microbe, parasite or virus in culture; format: cell-based; details: Table S11; LB broth, 37 °C, 16 h, n = 2
How it was run: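 MIC = lowest peptide concentration with no visible growth; LB broth microdilution, n = 2. Inoculum: overnight culture diluted 5000× (S. aureus 10000×). Peptides serially diluted 2-fold, 64–0.125 µg mL^−1 in the broth added to cells.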

[5] = system: K. pneumoniae CRKP 5452 PhoQL348Q; assay: MIC against colistin-resistant mutant; format: cell-based
Procedure: as §1, §2, §3, §4

[6] = system: meropenem-resistant K. pneumoniae CRKP 5452; assay: Mouse peritonitis-sepsis model; format: in vivo; details: K. pneumoniae CRKP5452, neutropenic ICR mice, s.c. 1 h after infection and every 12 h up to 36 h, doses 12.5, 25, 50 mg kg^−1, n = 5
Procedure: as §5
(§6) Meropenem‐resistant A. baumannii 1104008 or K. pneumoniae CRKP 5452 was cultured in LB broth at 37 °C fro 16 h and diluted with 5% type II porcine stomach mucin and 0.9% NaCl. All mice were rendered […] via intraperitoneal injection of cyclophosphamide at 150 mg/kg on day‐4 and day‐1 before infection. A. baumannii or K. pneumoniae cell cultures were diluted to provide a challenge inoculum of 5.0 × 10^7 CFU in 0.5 mL and then administered into each mouse via intraperitoneal injection. 25 mice were randomly grouped into five per cohort (n = 5) and each cohort was given a single dose of either vehicle (20% solutol), aquicidine L at 12.5, 25, or 50 mg kg^−1, and colistin at 12.5 mg kg^−1 1 h after infection via subcutaneous injection and repeated every 12 h up to 36 h (totally four injections).

[7] = system: meropenem-resistant A. baumannii 1104008; assay: Mouse peritonitis-sepsis model; format: in vivo; details: A. baumannii 1104008, neutropenic ICR mice, s.c. 1 h after infection and every 12 h up to 36 h, doses 12.5, 25, 50 mg kg^−1, n = 5
Procedure: as §5, §6

Row | SMILES | antibacterial activity (MIC) S. aureus USA300 MprFT345A ([1]; Figure S127b, daptomycin-resistant mutant) [µg/mL] | increase in MIC against resistant mutant compared to wild type ([1]; S. aureus USA300 MprF^T345A vs wild type) [fold] | minimal dose required for 100% survival [2] [mg/kg] | minimal dose required for 100% survival [3] [mg/kg] | inhibition of antibacterial activity by LPS and PE (E. coli DH5α) | MIC Acinetobacter baumannii P53 [4] [µg/mL] | resistant mutants by direct plating (E. coli) | antibacterial activity (MIC) K. pneumoniae CRKP 5452 PhoQL348Q ([5]; Figure S127a, colistin-resistant mutant from serial passaging) [µg/mL] | increase in MIC against resistant mutant compared to wild type ([5]; K. pneumoniae CRKP5452 PhoQ^L348Q vs wild type) [fold] | minimal dose required for 100% survival [6] [mg/kg] | minimal dose required for 100% survival [7] [mg/kg]
1 | CCCCCCCCCCCCCC(=O)N[C@@H](CN)C(=O)N[C@H](C(=O)N[C@@H](CC(C)C)C(=O)N[C@H]1COC(=O)[C@H](Cc2ccccc2)NC(=O)[C@H](CC(N)=O)NC(=O)[C@H](CCCN)NC(=O)[C@H]([C@@H](C)CC)NC(=O)[C@H](Cc2ccccc2)NC(=O)[C@H](CN)NC(=O)[C@H](CCN)NC1=O)[C@@H](C)O [synAQU5-C4] (Myristoyl-[Dap]TLS[Dab][Dap]FI[Orn]NF; ester 4-C) | 16 | 4 | 100 | 100 |  |  |  |  |  |  | 
2 | CCCCCCCCCCCCCC(=O)N[C@@H](CN)C(=O)N[C@H](C(=O)N[C@@H](CC(C)C)C(=O)N[C@@H](CO)C(=O)N[C@@H](CCN)C(=O)N[C@@H](CN)C(=O)N[C@@H](Cc1ccccc1)C(=O)N[C@H](C(=O)N[C@@H](CCCN)C(=O)N[C@@H](CC(N)=O)C(=O)N[C@@H](Cc1ccccc1)C(=O)O)[C@@H](C)CC)[C@@H](C)O [synAQU5-L] (Myristoyl-[Dap]TLS[Dab][Dap]FI[Orn]NF-OH) |  |  |  |  | stronger dose‐dependent inhibition | 8 (≈ 5.56 µM) | failed to identify E. coli resistant mutants | 16 | 4 | 50 | 50
